In PubChem BioAssay AID256 (DTP/NCI, 2004):
Where “and” joins values, the source holds several entries; their conditions need not be identical. Equal entries are not always repeated. Toxic doses and inconclusive results are not listed.

Tested on: CD2F1 mice, L1210 leukemia ip, survival T/C
Experiment: NCI In Vivo Anticancer Drug Screen. Data for tumor model L1210 Leukemia (intraperitoneal) in CD2F1 (CDF1) mice
Details: endpoint: mean survival time, higher = longer survival
In short: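 Mice carrying a transplanted tumor received test compound or vehicle alone. The value is the measurement in the treated group divided by that in the vehicle-treated control group.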

In the case of `CC(C)S(=O)(=O)/C=C(\I)c1ccccc1`, the T/C (dose: 100.0 mg/kg/injection, schedule: Q04DX003 (ip), vehicle: saline) is reported as 100 % of control and the T/C (dose: 200.0 mg/kg/injection, schedule: Q04DX003 (ip), vehicle: saline) is reported as 102 % of control.

With `CC(C)(CO)COC(=O)NC1=C(N2CC2)C(=O)C(NC(=O)OCC(C)(C)CO)=C(N2CC2)C1=O` the T/C (dose: 0.75 mg/kg/injection, schedule: Q01DX009 (ip), vehicle: water) was 119 % of control and 121 % of control, the T/C (dose: 1.5 mg/kg/injection, schedule: Q01DX009 (ip), vehicle: water) was 122 % of control and 106 % of control and the T/C (dose: 12.0 mg/kg/injection, schedule: Q01DX009 (ip), vehicle: water) was 166 % of control and 169 % of control.

`CCOC(=O)c1ccc(NC(=O)N(CC)c2ccccc2)cc1` was tested, and the T/C (dose: 100.0 mg/kg/injection, schedule: Q01DX009 (ip), vehicle: saline with Tween-80) was 96 % of control and 100 % of control, the T/C (dose: 100.0 mg/kg/injection, schedule: Q04DX002 (ip), vehicle: saline with Tween-80) was 100 % of control and 109 % of control and the T/C (dose: 100.0 mg/kg/injection, schedule: Q04DX003 (ip), vehicle: saline with Tween-80) was 94 % of control. The T/C (dose: 200.0 mg/kg/injection, schedule: Q01DX009 (ip), vehicle: saline with Tween-80) was 95 % of control and 104 % of control, the T/C (dose: 200.0 mg/kg/injection, schedule: Q04DX002 (ip), vehicle: saline with Tween-80) was 92 % of control and 102 % of control and the T/C (dose: 200.0 mg/kg/injection, schedule: Q04DX003 (ip), vehicle: saline with Tween-80) was 94 % of control. For the same compound, the T/C (dose: 400.0 mg/kg/injection, schedule: Q01DX009 (ip), vehicle: saline with Tween-80) was 96 % of control and 100 % of control, the T/C (dose: 400.0 mg/kg/injection, schedule: Q04DX002 (ip), vehicle: saline with Tween-80) was 94 % of control and 98 % of control and the T/C (dose: 400.0 mg/kg/injection, schedule: Q04DX003 (ip), vehicle: saline with Tween-80) was 95 % of control.
